Measurements: patent publication US11440883B2, “Heterocyclic compound and use thereof” (Takeda Pharmaceutical Company Limited, priority 2017, dated 2022)

Tests used:
[1] = tested on: cynomolgus monkeys; test: Evaluation of wake-promoting effects in cynomolgus monkeys (EEG/EMG/EOG); format: in vivo, cynomolgus monkey; conditions: Macaca fascicularis, sc, at ZT12, time spent in wakefulness for 4 h after administration, male cynomolgus monkeys, read-out: Wakefulness time (% of vehicle treatment) (Mean, n = 1-2)
[2] = target: T1, human orexin type 2 receptor (Homo sapiens, UniProt O43614); test: Measurement of orexin type 2 receptor agonist activity (Fluo-4 calcium fluorescence, FDSS); format: cell-based; conditions: 3 μM test compound; CHO cells expressing human OX2 receptor; DMSO = 0%, orexin A (human) = 100%
T1 construct: expressed in transfected cells
T1 sequence (O43614 1-444): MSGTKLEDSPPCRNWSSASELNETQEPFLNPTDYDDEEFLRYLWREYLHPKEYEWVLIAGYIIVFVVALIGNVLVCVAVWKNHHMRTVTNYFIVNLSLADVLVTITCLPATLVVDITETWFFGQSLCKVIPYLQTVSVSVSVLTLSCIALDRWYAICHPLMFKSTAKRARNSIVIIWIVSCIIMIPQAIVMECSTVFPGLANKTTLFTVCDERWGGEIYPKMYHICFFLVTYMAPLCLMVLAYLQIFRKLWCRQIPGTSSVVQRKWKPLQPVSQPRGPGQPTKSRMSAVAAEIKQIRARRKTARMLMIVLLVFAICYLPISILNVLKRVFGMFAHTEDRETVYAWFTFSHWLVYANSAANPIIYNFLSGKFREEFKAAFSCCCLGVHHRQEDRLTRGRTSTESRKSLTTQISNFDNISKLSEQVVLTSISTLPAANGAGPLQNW
From the text: To obtain a cell clone stably expressing human orexin type 2 receptor, human orexin type 2 receptor cDNA was inserted into pcDNA3.1(+) plasmid vector (Invitrogen), and a plasmid DNA for expression of human orexin type 2 receptor (pcDNA3.1(+)/hOX2R) was cloned. The plasmid DNA was introduced into CHO-dhfr cell by an electroporation method, and human orexin type 2 receptor expressing clone cells were obtained by limiting dilution method by using G418 drug resistance as a selection marker.
CHO cells forcibly expressing human OX2 receptor were seeded in each well of 384 well black transparent bottom plate (BD Falcon) at 7,500 cells/well, and cultured for one day in a 5% CO2 incubator at 37° C. […] A test compound prepared by diluting with assay buffer B (HBSS, 20 mM HEPES, 0.1% BSA) was added at 10 μL/well, and the fluorescence value was measured by FDSSUCELL (Hamamatsu Photonics K.K.) every one sec for 1 min, and thereafter every two sec for 1 min 40 sec. The activity (%) of the test compound was calculated assuming that variation in the fluorescence value when DMSO was added instead of the test compound was 0%, and variation in the fluorescence value when orexin A (human) (PEPTIDE INSTITUTE, INC.) was added at the final concentration of 10 nM was 100%.

Compound | response vs control in vivo at 1 mg/kg [1] | OX2R agonist activity (3 μM, %) [2]
CCS(=O)(=O)N[C@H]1CCN(C(=O)C(C)(C)O)[C@H]1Cc1cccc(-c2cccc(F)c2)c1F [Example 482, N-((2S,3S)-2-((2,3′-difluorobiphenyl-3-yl)methyl)-1-(2-hydroxy-2-methylpropanoyl)pyrrolidin-3-yl)ethanesulfonamide] | 281% | 
CCS(=O)(=O)N[C@H]1CCN(C(=O)C(C)(C)O)[C@H]1Cc1cccc(-c2cc(F)cc(F)c2)c1F [Example 484, N-((2S,3S)-1-(2-hydroxy-2-methylpropanoyl)-2-((2,3′,5′-trifluorobiphenyl-3-yl)methyl)pyrrolidin-3-yl)ethanesulfonamide] | 492% | 
CC(C)(O)C(=O)N1CC[C@H](NS(C)(=O)=O)[C@@H]1Cc1cccc(-c2cc(F)cc(F)c2)c1F [Example 483, N-((2S,3S)-1-(2-hydroxy-2-methylpropanoyl)-2-((2,3′,5′-trifluorobiphenyl-3-yl)methyl)pyrrolidin-3-yl)methanesulfonamide] | 359% | 
CCNC(=O)N1CCC[C@H](NS(C)(=O)=O)[C@@H]1Cc1cccc(O[Si](C(C)C)(C(C)C)C(C)C)c1 (relative stereo) [Example 17, cis-N-ethyl-3-((methylsulfonyl)amino)-2-(3-((triisopropylsilyl)oxy)benzyl)piperidine-1-carboxamide] |  | 29%
